# Results taken from PubChem BioAssay AID256 (DTP/NCI, 2004).
# Inconclusive results and toxic doses are left out.
# System: CD2F1 mice, L1210 leukemia ip, survival T/C
# Test: NCI In Vivo Anticancer Drug Screen. Data for tumor model L1210 Leukemia (intraperitoneal) in CD2F1 (CDF1) mice
# Settings: endpoint: mean survival time, higher = longer survival
# Method in brief: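 Read-out first: treated-group measurement over vehicle-control measurement, expressed as a ratio. Animals bore a transplanted tumor line and were dosed with compound or vehicle.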
compound,measurement,setting,value
N=c1ccn2c(n1)OC1C(OP(=O)(O)O)C(CO)OC12 (centres undefined),T/C,"dose: 2.9 mg/kg/injection, schedule: Q01DX009 (ip), vehicle: saline",101 % of control
same,T/C,"dose: 4.4 mg/kg/injection, schedule: Q03HX024 (oral), vehicle: water",117 % of control
same,T/C,"dose: 5.8 mg/kg/injection, schedule: Q01DX009 (ip), vehicle: saline",119 % of control
same,T/C,"dose: 8.0 mg/kg/injection, schedule: Q03HX008 (ip), vehicle: saline",122 % of control
same,T/C,"dose: 8.0 mg/kg/injection, schedule: Q03HX024 (ip), vehicle: saline",177 % of control
same,T/C,"dose: 8.7 mg/kg/injection, schedule: Q03HX024 (ip), vehicle: saline",163 % of control
same,T/C,"dose: 11.6 mg/kg/injection, schedule: Q01DX009 (oral), vehicle: water",120 % of control
same,T/C,"dose: 16.0 mg/kg/injection, schedule: Q03HX008 (oral), vehicle: saline",120 % of control
same,T/C,"dose: 16.0 mg/kg/injection, schedule: Q03HX024 (ip), vehicle: saline",225 % of control
same,T/C,"dose: 17.4 mg/kg/injection, schedule: Q03HX024 (ip), vehicle: saline",217 % of control
same,T/C,"dose: 17.4 mg/kg/injection, schedule: Q03HX024 (oral), vehicle: water",163 % of control
same,T/C,"dose: 23.2 mg/kg/injection, schedule: Q01DX009 (ip), vehicle: saline",157 % of control
same,T/C,"dose: 23.2 mg/kg/injection, schedule: Q01DX009 (oral), vehicle: water",122 % of control
same,T/C,"dose: 32.0 mg/kg/injection, schedule: Q01DX009 (ip), vehicle: saline",159 % of control
same,T/C,"dose: 32.0 mg/kg/injection, schedule: Q01DX009 (oral), vehicle: saline",111 % of control
same,T/C,"dose: 32.0 mg/kg/injection, schedule: Q03HX024 (ip), vehicle: saline",283 % of control
same,T/C,"dose: 32.0 mg/kg/injection, schedule: Q03HX024 (oral), vehicle: saline",177 % of control
same,T/C,"dose: 34.8 mg/kg/injection, schedule: Q03HX024 (ip), vehicle: saline",229 % of control
same,T/C,"dose: 34.8 mg/kg/injection, schedule: Q03HX024 (oral), vehicle: water",193 % of control
same,T/C,"dose: 46.4 mg/kg/injection, schedule: Q01DX009 (ip), vehicle: saline",170 % of control
same,T/C,"dose: 64.0 mg/kg/injection, schedule: Q01DX009 (ip), vehicle: saline",169 % of control
same,T/C,"dose: 64.0 mg/kg/injection, schedule: Q03HX024 (ip), vehicle: saline",418 % of control
same,T/C,"dose: 64.0 mg/kg/injection, schedule: Q03HX024 (oral), vehicle: saline",231 % of control
same,T/C,"dose: 69.6 mg/kg/injection, schedule: Q03HX024 (ip), vehicle: saline",228 % of control
same,T/C,"dose: 69.6 mg/kg/injection, schedule: Q03HX024 (oral), vehicle: water",291 % of control
same,T/C,"dose: 92.8 mg/kg/injection, schedule: Q01DX009 (ip), vehicle: saline",195 % of control
same,T/C,"dose: 92.8 mg/kg/injection, schedule: Q01DX009 (oral), vehicle: water",153 % of control
same,T/C,"dose: 128.0 mg/kg/injection, schedule: Q01DX001 (ip), vehicle: saline",112 % of control
same,T/C,"dose: 128.0 mg/kg/injection, schedule: Q01DX001 (oral), vehicle: saline",104 % of control
same,T/C,"dose: 128.0 mg/kg/injection, schedule: Q01DX009 (ip), vehicle: saline",200 % of control
same,T/C,"dose: 128.0 mg/kg/injection, schedule: Q01DX009 (oral), vehicle: saline",166 % of control
same,T/C,"dose: 128.0 mg/kg/injection, schedule: Q03HX008 (oral), vehicle: saline",157 % of control
same,T/C,"dose: 128.0 mg/kg/injection, schedule: Q03HX024 (oral), vehicle: saline",231 % of control
same,T/C,"dose: 128.0 mg/kg/injection, schedule: Q04DX003 (ip), vehicle: saline",154 % of control
same,T/C,"dose: 128.0 mg/kg/injection, schedule: Q04DX003 (oral), vehicle: saline",111 % of control
same,T/C,"dose: 139.2 mg/kg/injection, schedule: Q03HX024 (ip), vehicle: saline",221 % of control
same,T/C,"dose: 139.2 mg/kg/injection, schedule: Q03HX024 (oral), vehicle: water",273 % of control
same,T/C,"dose: 185.6 mg/kg/injection, schedule: Q01DX009 (oral), vehicle: water",197 % of control
same,T/C,"dose: 256.0 mg/kg/injection, schedule: Q01DX001 (ip), vehicle: saline",122 % of control
same,T/C,"dose: 256.0 mg/kg/injection, schedule: Q01DX001 (oral), vehicle: saline",107 % of control
same,T/C,"dose: 256.0 mg/kg/injection, schedule: Q01DX009 (oral), vehicle: saline",201 % of control
same,T/C,"dose: 256.0 mg/kg/injection, schedule: Q04DX003 (ip), vehicle: saline",180 % of control
same,T/C,"dose: 278.4 mg/kg/injection, schedule: Q03HX024 (ip), vehicle: saline",86 % of control
same,T/C,"dose: 371.2 mg/kg/injection, schedule: Q01DX009 (oral), vehicle: water",174 % of control
same,T/C,"dose: 512.0 mg/kg/injection, schedule: Q04DX003 (ip), vehicle: saline",219 % of control
same,T/C,"dose: 512.0 mg/kg/injection, schedule: Q04DX003 (oral), vehicle: saline",173 % of control
same,T/C,"dose: 1024.0 mg/kg/injection, schedule: Q01DX001 (ip), vehicle: saline",154 % of control
same,T/C,"dose: 1024.0 mg/kg/injection, schedule: Q04DX003 (ip), vehicle: saline",359 % of control
same,T/C,"dose: 1024.0 mg/kg/injection, schedule: Q04DX003 (oral), vehicle: saline",220 % of control
